Measured values as given in PubChem BioAssay AID1963847 (Molecular Pharmacology Branch, DTP, NCI, 2024).

Test system: 415267-285-R-J2-PDC complex spheroid viability
Test: Anticancer human tumor 415267-285-R-J2-PDC patient-derived breast carcinoma cell line growth inhibition [POLQ]
Settings: for IC50: curve of first compound; for viability, T/C: stronger effect = lower value
Method in brief: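 Growth inhibition in 3D: complex spheroids (tumor PDC, HUVEC, MSC) treated with POLQ inhibitor combinations; where Cmax unknown, highest tested concentration 10 microM, except SN-38 at 1 microM.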

[1] = second compound 0.0316 µM, first compound 0.0316 µM
[2] = second compound 0.0316 µM, first compound 0.1 µM
[3] = second compound 0.0316 µM, first compound 0.316 µM
[4] = second compound 0.0316 µM, first compound 1 µM
[5] = second compound 0.0316 µM, first compound 3.16 µM
[6] = second compound 0.0316 µM, first compound 10 µM
[7] = second compound 0.1 µM, first compound 0.0316 µM
[8] = second compound 0.1 µM, first compound 0.1 µM
[9] = second compound 0.1 µM, first compound 0.316 µM
[10] = second compound 0.1 µM, first compound 1 µM
[11] = second compound 0.1 µM, first compound 3.16 µM
[12] = second compound 0.1 µM, first compound 10 µM
[13] = second compound 0.316 µM, first compound 0.0316 µM
[14] = second compound 0.316 µM, first compound 0.1 µM
[15] = second compound 0.316 µM, first compound 0.316 µM
[16] = second compound 0.316 µM, first compound 1 µM
[17] = second compound 0.316 µM, first compound 3.16 µM
[18] = second compound 0.316 µM, first compound 10 µM
[19] = second compound 1 µM, first compound 0.0316 µM
[20] = second compound 1 µM, first compound 0.1 µM
[21] = second compound 1 µM, first compound 0.316 µM
[22] = second compound 1 µM, first compound 1 µM
[23] = second compound 1 µM, first compound 3.16 µM
[24] = second compound 1 µM, first compound 10 µM
[25] = second compound 3.16 µM, first compound 0.0316 µM
[26] = second compound 3.16 µM, first compound 0.1 µM
[27] = second compound 3.16 µM, first compound 0.316 µM
[28] = second compound 3.16 µM, first compound 1 µM
[29] = second compound 3.16 µM, first compound 3.16 µM
[30] = second compound 3.16 µM, first compound 10 µM
[31] = second compound 10 µM, first compound 0.0316 µM
[32] = second compound 10 µM, first compound 0.1 µM
[33] = second compound 10 µM, first compound 0.316 µM
[34] = second compound 10 µM, first compound 1 µM
[35] = second compound 10 µM, first compound 3.16 µM
[36] = second compound 10 µM, first compound 10 µM
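Note: spheroids exposed to compounds for one week before readout.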
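Throughout, for viability, T/C: luminescence used as stand-in measure of viable cells; 100% = DMSO vehicle control viability.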

With `Nc1ccn(C2OC(CO)C(O)C2(F)F)c(=O)n1` (stereo not drawn) + Nc1ccc(C#CCN(C(=O)Cc2ncc(C(F)(F)F)cc2C(F)(F)F)c2ccc(F)cc2)nn1 the IC50 (second compound 0.0316 µM) was < 0.0316 µM, the IC50 (second compound 0.1 µM) was < 0.0316 µM and the IC50 (second compound 0.316 µM) was < 0.0316 µM. The IC50 (second compound 1 µM) was < 0.0316 µM, the IC50 (second compound 3.16 µM) was < 0.0316 µM and the IC50 (second compound 10 µM) was < 0.0316 µM. The viability, T/C [1] was 31.7%, the viability, T/C [2] was 6.95% and the viability, T/C [3] was 5.45%. It also gave a viability, T/C [4] of 4.21%, a viability, T/C [5] of 5.5% and a viability, T/C [6] of 4.63%. The viability, T/C [7] was 33.3%, the viability, T/C [8] was 7.84% and the viability, T/C [9] was 5.21%. For the same compound, the viability, T/C [10] was 4.26%, the viability, T/C [11] was 4.99% and the viability, T/C [12] was 4.24%. For the same compound, the viability, T/C [13] was 42.2%, the viability, T/C [14] was 6.2% and the viability, T/C [15] was 4.82%. For the same compound, the viability, T/C [16] was 3.94%, the viability, T/C [17] was 6.45% and the viability, T/C [18] was 4.74%. The viability, T/C [19] was 25.8%, the viability, T/C [20] was 6.29% and the viability, T/C [21] was 5.24%. The viability, T/C [22] was 5.68%, the viability, T/C [23] was 5.32% and the viability, T/C [24] was 5.07%. For the same compound, the viability, T/C [25] was 17.7%, the viability, T/C [26] was 6.56% and the viability, T/C [27] was 5.45%. It also gave a viability, T/C [28] of 5.13%, a viability, T/C [29] of 5.35% and a viability, T/C [30] of 5.11%. It also gave a viability, T/C [31] of 14.4%, a viability, T/C [32] of 6.3% and a viability, T/C [33] of 5.2%. It also gave a viability, T/C [34] of 4.36%, a viability, T/C [35] of 4.56% and a viability, T/C [36] of 4.89%.

`COc1cccc2c1C(=O)c1c(O)c3c(c(O)c1C2=O)CC(O)(C(=O)CO)CC3OC1CC(N)C(O)C(C)O1` (stereo not drawn) + Cc1cccc(N(C)C(=O)C2C(O)CCN2c2nc(C)cc(C(F)(F)F)c2C#N)c1 was tested, and the IC50 (second compound 0.0316 µM) was < 0.0316 µM, the IC50 (second compound 0.1 µM) was < 0.0316 µM and the IC50 (second compound 0.316 µM) was < 0.0316 µM. The IC50 (second compound 1 µM) was < 0.0316 µM, the IC50 (second compound 3.16 µM) was < 0.0316 µM and the IC50 (second compound 10 µM) was < 0.0316 µM. For the same compound, the viability, T/C [1] was 37.8%, the viability, T/C [2] was 18.6% and the viability, T/C [3] was 4.26%. The viability, T/C [4] was 0.86%, the viability, T/C [5] was 1% and the viability, T/C [6] was 2.87%. The viability, T/C [7] was 38.3%, the viability, T/C [8] was 11.9% and the viability, T/C [9] was 5.5%. It also gave a viability, T/C [10] of 0.82%, a viability, T/C [11] of 0.95% and a viability, T/C [12] of 3.55%. It also gave a viability, T/C [13] of 36.5%, a viability, T/C [14] of 13.7% and a viability, T/C [15] of 4.69%. It also gave a viability, T/C [16] of 0.81%, a viability, T/C [17] of 1.46% and a viability, T/C [18] of 2.87%. The viability, T/C [19] was 42.5%, the viability, T/C [20] was 8.66% and the viability, T/C [21] was 4.35%. The viability, T/C [22] was 0.62%, the viability, T/C [23] was 1.26% and the viability, T/C [24] was 2.94%. It also gave a viability, T/C [25] of 40.4%, a viability, T/C [26] of 13.7% and a viability, T/C [27] of 5.27%. It also gave a viability, T/C [28] of 0.66%, a viability, T/C [29] of 1.47% and a viability, T/C [30] of 2.63%. For the same compound, the viability, T/C [31] was 24.7%, the viability, T/C [32] was 9.06% and the viability, T/C [33] was 7.17%. The viability, T/C [34] was 0.84%, the viability, T/C [35] was 3.16% and the viability, T/C [36] was 3.87%.

With `C=CC(=O)N1CCN(c2nc(=O)n(-c3c(C)ccnc3C(C)C)c3nc(-c4c(O)cccc4F)c(F)cc23)C(C)C1` (stereo not drawn) + Cc1cccc(N(C)C(=O)C2C(O)CCN2c2nc(C)cc(C(F)(F)F)c2C#N)c1 the IC50 (second compound 0.0316 µM) was > 10 µM, the IC50 (second compound 0.1 µM) was > 10 µM and the IC50 (second compound 0.316 µM) was > 10 µM. For the same compound, the IC50 (second compound 1 µM) was > 10 µM, the IC50 (second compound 3.16 µM) was > 10 µM and the IC50 (second compound 10 µM) was > 10 µM. The viability, T/C [1] was 101%, the viability, T/C [2] was 104% and the viability, T/C [3] was 102%. For the same compound, the viability, T/C [4] was 104%, the viability, T/C [5] was 111% and the viability, T/C [6] was 93.5%. The viability, T/C [7] was 98.4%, the viability, T/C [8] was 95.6% and the viability, T/C [9] was 98.7%. For the same compound, the viability, T/C [10] was 103%, the viability, T/C [11] was 100% and the viability, T/C [12] was 97.7%. The viability, T/C [13] was 103%, the viability, T/C [14] was 106% and the viability, T/C [15] was 105%. It also gave a viability, T/C [16] of 105%, a viability, T/C [17] of 99.5% and a viability, T/C [18] of 102%. The viability, T/C [19] was 95.8%, the viability, T/C [20] was 105% and the viability, T/C [21] was 106%. For the same compound, the viability, T/C [22] was 99.8%, the viability, T/C [23] was 112% and the viability, T/C [24] was 91.4%. For the same compound, the viability, T/C [25] was 99.2%, the viability, T/C [26] was 104% and the viability, T/C [27] was 107%. The viability, T/C [28] was 102%, the viability, T/C [29] was 99.1% and the viability, T/C [30] was 96.7%. It also gave a viability, T/C [31] of 100%, a viability, T/C [32] of 90.8% and a viability, T/C [33] of 101%. The viability, T/C [34] was 102%, the viability, T/C [35] was 94.4% and the viability, T/C [36] was 88.8%.

In the case of `CC(C)n1c(=O)n(C)c2cnc3cc(F)c(-c4ccc(OCCCN5CCCCC5)nc4)cc3c21` + Nc1ccc(C#CCN(C(=O)Cc2ncc(C(F)(F)F)cc2C(F)(F)F)c2ccc(F)cc2)nn1, the IC50 (second compound 0.0316 µM) is reported as > 10 µM, the IC50 (second compound 0.1 µM) is reported as > 10 µM and the IC50 (second compound 0.316 µM) is reported as > 10 µM. The IC50 (second compound 1 µM) was > 10 µM, the IC50 (second compound 3.16 µM) was > 10 µM and the IC50 (second compound 10 µM) was > 10 µM. The viability, T/C [1] was 102%, the viability, T/C [2] was 107% and the viability, T/C [3] was 105%. It also gave a viability, T/C [4] of 122%, a viability, T/C [5] of 104% and a viability, T/C [6] of 103%. The viability, T/C [7] was 103%, the viability, T/C [8] was 105% and the viability, T/C [9] was 108%. For the same compound, the viability, T/C [10] was 96.1%, the viability, T/C [11] was 101% and the viability, T/C [12] was 97.6%. The viability, T/C [13] was 102%, the viability, T/C [14] was 113% and the viability, T/C [15] was 101%. It also gave a viability, T/C [16] of 105%, a viability, T/C [17] of 103% and a viability, T/C [18] of 108%. The viability, T/C [19] was 102%, the viability, T/C [20] was 105% and the viability, T/C [21] was 96.4%. For the same compound, the viability, T/C [22] was 101%, the viability, T/C [23] was 111% and the viability, T/C [24] was 108%. The viability, T/C [25] was 101%, the viability, T/C [26] was 107% and the viability, T/C [27] was 110%. It also gave a viability, T/C [28] of 111%, a viability, T/C [29] of 108% and a viability, T/C [30] of 115%. For the same compound, the viability, T/C [31] was 108%, the viability, T/C [32] was 109% and the viability, T/C [33] was 117%. For the same compound, the viability, T/C [34] was 126%, the viability, T/C [35] was 106% and the viability, T/C [36] was 117%.
